Reference: ChEMBL document CHEMBL4251601 (Eur J Med Chem, 2018)

Experiments:
[1] = Volume of distribution at steady state in Sprague-Dawley rat at 2 mg/kg, iv administered as single dose by LC-MS/MS analysis; format: ADME, organism-based; settings: in vivo, read-out: Vdss
[2] = target: Serine/threonine-protein kinase MRCK beta (Homo sapiens) (UniProt Q9Y5S2); assay: Inhibition of recombinant human His-tagged CDC42 BPB expressed in baculovirus expression system at 0.1 uM by Z'-Lyte assay relative to control
[3] = target: Hepatocyte growth factor receptor (Homo sapiens) (UniProt P08581); assay: Inhibition of recombinant human His-tagged c-Met cytoplasmic domain expressed in baculovirus expression system at 0.1 uM by Z'-Lyte assay relative to control
Sequence of Hepatocyte growth factor receptor (Homo sapiens) (P08581 whole entry, the tested form may be a part): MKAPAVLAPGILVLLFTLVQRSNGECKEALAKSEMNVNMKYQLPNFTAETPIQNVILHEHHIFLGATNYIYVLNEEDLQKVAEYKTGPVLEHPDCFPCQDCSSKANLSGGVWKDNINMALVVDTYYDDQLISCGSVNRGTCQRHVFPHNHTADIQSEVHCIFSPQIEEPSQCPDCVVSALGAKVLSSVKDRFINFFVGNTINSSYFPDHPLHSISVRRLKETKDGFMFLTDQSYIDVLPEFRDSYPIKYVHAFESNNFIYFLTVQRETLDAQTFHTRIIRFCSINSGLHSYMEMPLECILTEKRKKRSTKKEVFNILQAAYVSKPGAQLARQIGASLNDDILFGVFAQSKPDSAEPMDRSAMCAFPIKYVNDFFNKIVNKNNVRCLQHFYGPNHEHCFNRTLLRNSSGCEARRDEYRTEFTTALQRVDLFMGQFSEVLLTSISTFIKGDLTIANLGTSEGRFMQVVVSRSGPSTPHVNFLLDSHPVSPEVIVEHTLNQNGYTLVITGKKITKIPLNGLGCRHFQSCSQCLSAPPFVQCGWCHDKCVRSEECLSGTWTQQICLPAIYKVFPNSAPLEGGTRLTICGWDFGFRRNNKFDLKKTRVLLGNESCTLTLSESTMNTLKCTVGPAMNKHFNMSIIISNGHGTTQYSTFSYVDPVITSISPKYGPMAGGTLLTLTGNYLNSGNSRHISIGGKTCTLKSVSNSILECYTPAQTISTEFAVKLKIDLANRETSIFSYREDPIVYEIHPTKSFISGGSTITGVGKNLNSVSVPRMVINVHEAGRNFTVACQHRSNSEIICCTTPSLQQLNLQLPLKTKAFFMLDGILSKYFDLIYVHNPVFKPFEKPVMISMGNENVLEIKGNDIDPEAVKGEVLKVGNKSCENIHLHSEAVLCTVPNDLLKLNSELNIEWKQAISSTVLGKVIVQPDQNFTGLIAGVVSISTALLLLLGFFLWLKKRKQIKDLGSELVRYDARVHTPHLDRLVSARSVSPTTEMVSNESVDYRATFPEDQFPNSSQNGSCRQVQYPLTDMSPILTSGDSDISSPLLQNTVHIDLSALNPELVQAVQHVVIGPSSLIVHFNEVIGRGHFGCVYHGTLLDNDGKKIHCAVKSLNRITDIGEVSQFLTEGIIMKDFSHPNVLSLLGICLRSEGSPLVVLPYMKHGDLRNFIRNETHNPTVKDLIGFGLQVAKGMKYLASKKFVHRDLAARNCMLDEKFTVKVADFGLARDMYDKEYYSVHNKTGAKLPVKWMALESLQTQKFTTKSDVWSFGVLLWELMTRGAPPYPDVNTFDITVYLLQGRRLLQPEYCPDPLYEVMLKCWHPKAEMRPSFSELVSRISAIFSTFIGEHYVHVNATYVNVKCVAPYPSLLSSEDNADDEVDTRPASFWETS

[4] = target: G protein-coupled receptor kinase 4 (Homo sapiens) (UniProt P32298); assay: Inhibition of recombinant human full length GST-tagged GRK4 expressed in baculovirus expression system at 0.1 uM by Z'-Lyte assay relative to control
Sequence of G protein-coupled receptor kinase 4 (Homo sapiens) (P32298 whole entry, looked up): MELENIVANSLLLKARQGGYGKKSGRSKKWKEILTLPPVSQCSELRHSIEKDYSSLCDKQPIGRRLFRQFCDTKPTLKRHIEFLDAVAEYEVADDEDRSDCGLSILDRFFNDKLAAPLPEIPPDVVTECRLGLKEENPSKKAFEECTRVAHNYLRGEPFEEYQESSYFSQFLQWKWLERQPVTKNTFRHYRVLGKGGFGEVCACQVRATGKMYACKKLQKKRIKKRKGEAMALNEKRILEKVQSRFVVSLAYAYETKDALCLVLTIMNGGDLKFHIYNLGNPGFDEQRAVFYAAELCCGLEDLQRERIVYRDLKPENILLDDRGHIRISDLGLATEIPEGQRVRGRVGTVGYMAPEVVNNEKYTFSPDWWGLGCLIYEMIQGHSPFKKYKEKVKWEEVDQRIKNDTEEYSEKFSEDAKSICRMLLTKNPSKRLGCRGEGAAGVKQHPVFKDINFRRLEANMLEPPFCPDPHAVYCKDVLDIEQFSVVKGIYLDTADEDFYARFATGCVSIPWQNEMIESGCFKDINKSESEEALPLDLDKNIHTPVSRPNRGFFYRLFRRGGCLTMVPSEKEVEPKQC

[5] = target: Tyrosine-protein kinase JAK2 (Homo sapiens) (UniProt O60674); assay: Inhibition of recombinant human GST-tagged JAK2 expressed in baculovirus expression system at 0.1 uM by TR-FRET assay relative to control
[6] = target: Tyrosine-protein kinase JAK3 (Homo sapiens) (UniProt P52333); assay: Inhibition of recombinant human GST-tagged JAK3 expressed in baculovirus expression system at 0.1 uM by TR-FRET assay relative to control
[7] = target: Mitogen-activated protein kinase 8 (Homo sapiens) (UniProt P45983); assay: Inhibition of recombinant human full length His-tagged JNK1 expressed in baculovirus expression system at 0.1 uM by Z'-Lyte assay relative to control
[8] = target: Tyrosine-protein kinase Lyn (Homo sapiens) (UniProt P07948); assay: Inhibition of recombinant human full length GST-tagged Lyn-A expressed in insect cells at 0.1 uM by Z'-Lyte assay relative to control
[9] = target: Mitogen-activated protein kinase kinase kinase 9 (Homo sapiens) (UniProt P80192); assay: Inhibition of recombinant human GST-tagged MLK1 expressed in baculovirus expression system at 0.1 uM by Z'-Lyte assay relative to control
[10] = target: High affinity nerve growth factor receptor (Homo sapiens) (UniProt P04629); assay: Inhibition of recombinant human His-tagged TRKA cytoplasmic domain expressed in baculovirus expression system at 0.1 uM by Z'-Lyte assay relative to control
[11] = target: CDK8/Cyclin C (Homo sapiens) (UniProt P49336+P24863); assay: Inhibition of recombinant full length human His-tagged CDK8/Cyclin-C expressed in baculovirus expression system at 1 uM by LanthaScreen assay relative to control
[12] = target: Aurora kinase B (Homo sapiens) (UniProt Q96GD4); assay: Inhibition of recombinant full length human His-tagged AURKB expressed in baculovirus expression system at 1 uM by Z'-Lyte assay relative to control
[13] = target: Casein kinase I isoform alpha (Homo sapiens) (UniProt P48729); assay: Inhibition of recombinant full length human GST-tagged CK1alpha expressed in baculovirus expression system at 1 uM by Z'-Lyte assay relative to control
[14] = target: Fibroblast growth factor receptor 1 (Homo sapiens) (UniProt P11362); assay: Inhibition of recombinant human His-tagged FGFR1 cytoplasmic domain expressed in baculovirus expression system at 1 uM by Z'-Lyte assay relative to control
[15] = target: G protein-coupled receptor kinase 6 (Homo sapiens) (UniProt P43250); assay: Inhibition of recombinant human full length GST-tagged GRK6 expressed in baculovirus expression system at 1 uM by Z'-Lyte assay relative to control
[16] = target: Insulin receptor (Homo sapiens) (UniProt P06213); assay: Inhibition of recombinant human GST-tagged INSR cytoplasmic domain expressed in baculovirus expression system at 1 uM by Z'-Lyte assay relative to control
Sequence of Insulin receptor (Homo sapiens) (P06213 28-758 limits assumed): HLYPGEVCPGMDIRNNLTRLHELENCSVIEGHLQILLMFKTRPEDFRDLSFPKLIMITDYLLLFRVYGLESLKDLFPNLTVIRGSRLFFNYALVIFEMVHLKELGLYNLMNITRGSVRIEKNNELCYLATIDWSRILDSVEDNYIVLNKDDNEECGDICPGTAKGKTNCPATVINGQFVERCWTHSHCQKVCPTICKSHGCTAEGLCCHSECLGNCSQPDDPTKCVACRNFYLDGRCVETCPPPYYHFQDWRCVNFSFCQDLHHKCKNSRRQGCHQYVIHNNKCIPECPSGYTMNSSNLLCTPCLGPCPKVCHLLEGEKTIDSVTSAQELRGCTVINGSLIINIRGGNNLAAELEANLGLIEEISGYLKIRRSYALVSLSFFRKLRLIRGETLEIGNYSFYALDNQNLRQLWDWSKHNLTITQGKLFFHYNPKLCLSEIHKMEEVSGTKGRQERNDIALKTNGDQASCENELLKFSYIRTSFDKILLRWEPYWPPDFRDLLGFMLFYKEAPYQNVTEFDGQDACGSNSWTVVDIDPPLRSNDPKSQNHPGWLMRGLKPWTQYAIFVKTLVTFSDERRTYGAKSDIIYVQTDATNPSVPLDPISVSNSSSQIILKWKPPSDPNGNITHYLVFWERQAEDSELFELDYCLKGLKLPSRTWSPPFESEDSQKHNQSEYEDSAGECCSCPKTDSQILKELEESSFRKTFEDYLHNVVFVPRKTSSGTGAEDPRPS
Sequence of Insulin receptor (Homo sapiens) (P06213 763-1382 limits assumed): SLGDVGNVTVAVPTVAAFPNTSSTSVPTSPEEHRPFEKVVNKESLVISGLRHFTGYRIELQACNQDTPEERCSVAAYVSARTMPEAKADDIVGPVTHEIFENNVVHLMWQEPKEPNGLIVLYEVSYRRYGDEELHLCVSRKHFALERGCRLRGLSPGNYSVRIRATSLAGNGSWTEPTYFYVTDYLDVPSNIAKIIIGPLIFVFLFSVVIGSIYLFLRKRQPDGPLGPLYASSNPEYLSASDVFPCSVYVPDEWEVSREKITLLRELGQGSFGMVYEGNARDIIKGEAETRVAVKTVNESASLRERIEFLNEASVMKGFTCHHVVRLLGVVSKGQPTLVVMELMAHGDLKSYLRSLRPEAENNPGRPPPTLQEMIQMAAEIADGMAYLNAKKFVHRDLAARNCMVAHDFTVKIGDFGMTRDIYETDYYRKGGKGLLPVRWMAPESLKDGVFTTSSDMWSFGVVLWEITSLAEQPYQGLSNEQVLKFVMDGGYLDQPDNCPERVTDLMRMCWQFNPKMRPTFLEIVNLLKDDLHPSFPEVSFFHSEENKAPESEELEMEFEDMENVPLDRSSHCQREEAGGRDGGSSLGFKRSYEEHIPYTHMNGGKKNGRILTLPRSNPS

[17] = target: Mitogen-activated protein kinase kinase kinase 14 (Homo sapiens, UniProt Q99558); assay: Inhibition of recombinant human GST-tagged NIK expressed in baculovirus expression system at 1 uM by Z'-Lyte assay relative to control
[18] = target: Serine/threonine-protein kinase 26 (Homo sapiens) (UniProt Q9P289); assay: Inhibition of recombinant human full length GST-tagged MST4 expressed in baculovirus expression system at 1 uM by Z'-Lyte assay relative to control
Sequence of Serine/threonine-protein kinase 26 (Homo sapiens) (Q9P289 2-416 limits assumed): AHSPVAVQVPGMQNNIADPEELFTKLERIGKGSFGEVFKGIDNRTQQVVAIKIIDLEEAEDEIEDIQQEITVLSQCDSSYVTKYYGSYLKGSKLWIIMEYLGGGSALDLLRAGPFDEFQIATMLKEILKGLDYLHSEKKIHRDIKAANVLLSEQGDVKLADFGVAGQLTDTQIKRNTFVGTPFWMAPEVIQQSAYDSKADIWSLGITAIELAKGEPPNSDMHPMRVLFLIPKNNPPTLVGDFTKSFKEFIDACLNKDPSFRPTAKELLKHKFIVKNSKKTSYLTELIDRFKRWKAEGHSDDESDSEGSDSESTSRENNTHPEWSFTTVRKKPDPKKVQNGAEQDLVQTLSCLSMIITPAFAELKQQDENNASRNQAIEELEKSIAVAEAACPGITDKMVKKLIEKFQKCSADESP

[19] = target: 3-phosphoinositide-dependent protein kinase 1 (Homo sapiens) (UniProt O15530); assay: Inhibition of recombinant human full length His-tagged PDK1 expressed in baculovirus expression system at 1 uM by Z'-Lyte assay relative to control
[20] = target: Phosphatidylinositol 4,5-bisphosphate 3-kinase catalytic subunit beta isoform (Homo sapiens) (UniProt P42338); assay: Inhibition of PI3K beta (unknown origin) at 1 uM by ADP-Glo assay relative to control
[21] = target: Phosphatidylinositol 4,5-bisphosphate 3-kinase catalytic subunit gamma isoform (Homo sapiens) (UniProt P48736); assay: Inhibition of PI3K gamma (unknown origin) at 1 uM by ADP-Glo assay relative to control
Sequence of Phosphatidylinositol 4,5-bisphosphate 3-kinase catalytic subunit gamma isoform (Homo sapiens) (P48736 whole entry, looked up, canonical isoform): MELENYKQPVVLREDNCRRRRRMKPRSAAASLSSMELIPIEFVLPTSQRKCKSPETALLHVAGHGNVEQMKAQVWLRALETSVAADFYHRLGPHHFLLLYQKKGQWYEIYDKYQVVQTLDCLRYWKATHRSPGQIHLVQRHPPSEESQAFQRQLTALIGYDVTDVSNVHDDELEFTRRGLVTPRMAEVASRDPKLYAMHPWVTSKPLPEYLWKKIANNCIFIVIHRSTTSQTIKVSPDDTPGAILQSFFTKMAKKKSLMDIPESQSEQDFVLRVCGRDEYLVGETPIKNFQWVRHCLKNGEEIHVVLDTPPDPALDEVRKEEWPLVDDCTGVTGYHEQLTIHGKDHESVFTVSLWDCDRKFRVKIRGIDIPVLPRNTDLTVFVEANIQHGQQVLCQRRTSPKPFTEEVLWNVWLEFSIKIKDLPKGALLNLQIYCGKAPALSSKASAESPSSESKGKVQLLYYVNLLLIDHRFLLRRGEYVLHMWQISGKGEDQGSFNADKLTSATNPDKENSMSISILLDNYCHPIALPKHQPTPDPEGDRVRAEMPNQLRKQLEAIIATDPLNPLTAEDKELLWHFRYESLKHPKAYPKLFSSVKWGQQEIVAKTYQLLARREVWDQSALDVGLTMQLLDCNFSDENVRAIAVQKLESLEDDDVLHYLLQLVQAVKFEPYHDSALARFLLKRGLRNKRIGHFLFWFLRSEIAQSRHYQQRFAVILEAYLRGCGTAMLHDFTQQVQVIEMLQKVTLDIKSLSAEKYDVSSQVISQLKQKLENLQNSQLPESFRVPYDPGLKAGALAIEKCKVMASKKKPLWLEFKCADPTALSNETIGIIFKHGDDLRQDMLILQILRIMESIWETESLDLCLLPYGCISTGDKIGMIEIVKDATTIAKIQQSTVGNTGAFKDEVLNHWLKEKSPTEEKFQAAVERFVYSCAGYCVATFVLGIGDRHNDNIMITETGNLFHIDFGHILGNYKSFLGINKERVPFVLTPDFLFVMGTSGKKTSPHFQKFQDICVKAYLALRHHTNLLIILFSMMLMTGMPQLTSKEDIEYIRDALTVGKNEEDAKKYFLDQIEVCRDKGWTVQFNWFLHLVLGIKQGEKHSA

[22] = target: Proto-oncogene tyrosine-protein kinase Src (Homo sapiens) (UniProt P12931); assay: Inhibition of recombinant human full length His-tagged SRC expressed in baculovirus expression system at 1 uM by Z'-Lyte assay relative to control
[23] = target: Angiopoietin-1 receptor (Homo sapiens) (UniProt Q02763); assay: Inhibition of recombinant human GST-tagged TIE2 cytoplasmic domain expressed in baculovirus expression system at 1 uM by Z'-Lyte assay relative to control
[24] = AUC (0 to infinity) in ICR mouse at 5 mg/kg, po administered as single dose by LC-MS/MS analysis; format: ADME, organism-based; parameters: dose 5 mg/kg, route oral, time infinity; settings: in vivo
[25] = Unbound Cmax in CD-1 mouse plasma at 10 mg/kg, po administered as single dose by LC-MS/MS analysis; format: ADME, organism-based; settings: in vivo
[26] = system: U-87 MG; assay: Antitumor activity against luciferase-fused human U87MG cells orthotopically xenografted in nude mouse assessed as tumor growth inhibition at 3.125 mg/kg, po qd for 4 weeks by bioluminescence imaging relative to control; format: functional, U-87MG ATCC; settings: 672 h, read-out: TGI
[27] = system: U-87 MG; assay: Antitumor activity against luciferase-fused human U87MG cells orthotopically xenografted in nude mouse assessed as tumor growth inhibition at 6.25 mg/kg, po qd for 4 weeks by bioluminescence imaging relative to control; format: functional, U-87MG ATCC; settings: 672 h, read-out: TGI
[28] = system: U-87 MG; assay: Antitumor activity against luciferase-fused human U87MG cells orthotopically xenografted in nude mouse assessed as increase in mouse life span at 6.25 mg/kg, po qd for 5 weeks relative to control; format: functional, U-87MG ATCC; settings: 840 h
[29] = target: Tyrosine-protein kinase SYK (Homo sapiens) (UniProt P43405); assay: Inhibition of recombinant human full length GST-tagged SYK expressed in baculovirus expression system at 0.1 uM by Z'-Lyte assay relative to control

SMILES: CC1=Nc2c(F)cc(-c3nc(Nc4ccc(C5CCN(C)CC5)cn4)ncc3F)cc2C12CCCC2 [CROZBACICLIB]
- Vd [1]: 17.4 L/kg
- inhibition [2]: 15%
- inhibition [3]: 12%
- inhibition [4]: 0%
- inhibition [5]: 24%
- inhibition [6]: 56%
- inhibition [7]: 6%
- inhibition [8]: 0%
- inhibition [9]: 0%
- inhibition [10]: 2%
- inhibition [11]: 85%
- inhibition [12]: 6%
- inhibition [13]: 5%
- inhibition [14]: 13%
- inhibition [15]: 4%
- inhibition [16]: 12%
- inhibition [17]: 105%
- inhibition [18]: -1%
- inhibition [19]: 4%
- inhibition [20]: 11%
- inhibition [21]: 19%
- inhibition [22]: 7%
- inhibition [23]: -2%
- AUC(0-inf) [24]: 2500 ng·h/mL
- fCmax [25]: 5.73 ng/mL
- inhibition in vivo at 3.125 mg/kg [26]: 62%
- inhibition in vivo at 6.25 mg/kg [27]: 79%
- ILS at 6.25 mg/kg [28]: 45%
- inhibition [29]: 5%
